Consider four molecules from PubChem BioAssay AID2060363 (Molecular Pharmacology Branch, DTP, NCI, 2025).

Structures are written as SMILES. “And” between values parts separate entries of the source, which are not always exact repeats. Identical values can stand only once.

The test system of this test is 156681-154-R-J1-PDC tumor spheroids, viability % test/control. Nature of the test: Anticancer human tumor 156681-154-R-J1-PDC patient-derived melanoma cell line growth inhibition [TAK]. To be noted: spheroids with HUVEC and MSC; for viability, T/C: stronger effect = lower value. Put shortly: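 Drug combinations, each paired with TAK-243 or ipatasertib, were tested on multi-cell spheroids of 60% malignant cells, 25% HUVEC and 15% hMSC. Top concentrations were at or near the clinical Cmax (10 microM if undetermined), decreasing by half-log; viability is given as % test/control.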

Setting [1] is: curve of first compound, second compound 0.3 µM.
Setting [2] is: curve of first compound, second compound 0.949 µM.
[3] abbreviates: curve of first compound, second compound 3 µM.
Where [4] appears, read: curve of first compound, second compound 9.49 µM.
Where [5] appears, read: curve of first compound, second compound 30 µM.
[6] abbreviates: second compound 0.3 µM, first compound 0.00316 µM.
Setting [7] is: second compound 0.3 µM, first compound 0.01 µM.
The mark [8] stands for this setting: second compound 0.3 µM, first compound 0.0316 µM.
The mark [9] stands for this setting: second compound 0.3 µM, first compound 0.1 µM.
Where [10] appears, read: second compound 0.949 µM, first compound 0.00316 µM.
[11] abbreviates: second compound 0.949 µM, first compound 0.01 µM.
Setting [12] is: second compound 0.949 µM, first compound 0.0316 µM.
Setting [13] is: second compound 0.949 µM, first compound 0.1 µM.
Setting [14] is: second compound 3 µM, first compound 0.00316 µM.
[15] abbreviates: second compound 3 µM, first compound 0.01 µM.
[16] abbreviates: second compound 3 µM, first compound 0.0316 µM.
Where [17] appears, read: second compound 3 µM, first compound 0.1 µM.
[18] abbreviates: second compound 9.49 µM, first compound 0.00316 µM.
[19] abbreviates: second compound 9.49 µM, first compound 0.01 µM.
Setting [20] is: second compound 9.49 µM, first compound 0.0316 µM.
[21] abbreviates: second compound 9.49 µM, first compound 0.1 µM.
[22] abbreviates: second compound 30 µM, first compound 0.00316 µM.
Setting [23] is: second compound 30 µM, first compound 0.01 µM.
Where [24] appears, read: second compound 30 µM, first compound 0.0316 µM.
The mark [25] stands for this setting: second compound 30 µM, first compound 0.1 µM.
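Also: spheroids exposed to compounds for 7 days before the endpoint.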

By IC50 is commonly meant the concentration that inhibits the measured activity by half. The term viability, T/C denotes the result in the treated group divided by that in the control group, in per cent. In the case of `COc1c(OCCCN2CCOCC2)ccc2c3n(c(=NC(=O)c4cnc(N)nc4)nc12)CCN3` + CC(C)NCC(C(=O)N1CCN(c2ncnc3c2C(C)CC3O)CC1)c1ccc(Cl)cc1, the IC50 reads like this: under setting [1], 65.8 nM; under setting [2], 51.2 nM; under setting [3], 16.8 nM; under setting [4], < 3.16 nM; under setting [5], < 3.16 nM. For the same molecule, the viability, T/C under setting [6] was 94.6%; the viability, T/C under setting [7] was 91.4%; the viability, T/C under setting [8] was 70.6%; the viability, T/C under setting [9] was 38.3%; the viability, T/C (second compound 0.3 µM, first compound 0.316 µM) was 11.3%; the viability, T/C (second compound 0.3 µM, first compound 1 µM) is 2.36%. Moreover, the viability, T/C is, setting by setting: under setting [10], 86.7%; under setting [11], 85.1%; under setting [12], 61%; under setting [13], 33.3%; (second compound 0.949 µM, first compound 0.316 µM) 6.84%; (second compound 0.949 µM, first compound 1 µM) 1.52%. Besides, the viability, T/C is 67.4% under setting [14]; 56.6% under setting [15]; 40.7% under setting [16]; 21.7% under setting [17]; 3.81% (second compound 3 µM, first compound 0.316 µM); 1.29% (second compound 3 µM, first compound 1 µM). Also, the viability, T/C is 30.9% under setting [18]; 35.9% under setting [19]; 18.5% under setting [20]; 9.13% under setting [21]; 2.36% (second compound 9.49 µM, first compound 0.316 µM); 1.24% (second compound 9.49 µM, first compound 1 µM). Also, the viability, T/C is, setting by setting: under setting [22], 13.6%; under setting [23], 11.5%; under setting [24], 6.36%; under setting [25], 3.28%; (second compound 30 µM, first compound 0.316 µM) 0.7%; (second compound 30 µM, first compound 1 µM) 0.29%.

`Cn1cnc2c(F)c(Nc3ccc(Br)cc3Cl)c(C(=O)NOCCO)cc21`: the viability, T/C was 95.4% and 99.5% (compound 0.00949 µM); 92.4% and 89.7% (compound 0.03 µM); 97.8% and 89.7% (compound 0.0949 µM); 93.4% and 95.4% (compound 0.3 µM); 41.3% and 32.8% (compound 0.949 µM); 13% and 12.3% (compound 3 µM). Further, for the setting “curve of compound”, the IC50 is 782 nM and 685 nM.

Take `CC(C)CC(NC(=O)CNC(=O)c1cc(Cl)ccc1Cl)B1OC(=O)CC(CC(=O)O)(C(=O)O)O1` (centres undefined) + CC(C)NCC(C(=O)N1CCN(c2ncnc3c2C(C)CC3O)CC1)c1ccc(Cl)cc1: the half-inhibitory concentration (IC50) runs as follows: under setting [1], 18 nM; under setting [2], 17.1 nM; under setting [3], 12.2 nM; under setting [4], < 0.316 nM; under setting [5], < 0.316 nM. For the same molecule, the viability, T/C is 96.8% (second compound 0.3 µM, first compound 0.000316 µM); 86.9% (second compound 0.3 µM, first compound 0.001 µM); 94.9% under setting [6]; 88% under setting [7]; 13.8% under setting [8]; 0.27% under setting [9]. The viability, T/C runs as follows: (second compound 0.949 µM, first compound 0.000316 µM) 88.7%; (second compound 0.949 µM, first compound 0.001 µM) 87.7%; under setting [10], 90.2%; under setting [11], 82.1%; under setting [12], 13.2%; under setting [13], 0.34%. Also, the viability, T/C is, setting by setting: (second compound 3 µM, first compound 0.000316 µM) 79.4%; (second compound 3 µM, first compound 0.001 µM) 76.9%; under setting [14], 78.9%; under setting [15], 58.8%; under setting [16], 8.09%; under setting [17], 0.23%. Moreover, the viability, T/C (second compound 9.49 µM, first compound 0.000316 µM) is 43.3%; the viability, T/C (second compound 9.49 µM, first compound 0.001 µM) is 41.5%; the viability, T/C under setting [18] is 42%; the viability, T/C under setting [19] is 40.9%; the viability, T/C under setting [20] was 4.19%; the viability, T/C under setting [21] was 0.25%. Also, the viability, T/C (second compound 30 µM, first compound 0.000316 µM) is 17.5%; the viability, T/C (second compound 30 µM, first compound 0.001 µM) was 20.3%; the viability, T/C under setting [22] was 18.5%; the viability, T/C under setting [23] is 15.4%; the viability, T/C under setting [24] is 2.17%; the viability, T/C under setting [25] was 0.28%.

As to `COC1CC2CCC(C)C(O)(O2)C(=O)C(=O)N2CCCCC2C(=O)OC(C(C)CC2CCC(OCCO)C(OC)C2)CC(=O)C(C)C=C(C)C(O)C(OC)C(=O)C(C)CC(C)C=CC=CC=C1C` (centres undefined), the viability, T/C runs as follows: (compound 0.000316 µM) 98.5% and 87%; (compound 0.001 µM) 81.8% and 87.3%; (compound 0.00316 µM) 70% and 71.2%; (compound 0.01 µM) 59.4% and 64.1%; (compound 0.0316 µM) 62.3% and 59.9%; (compound 0.1 µM) 46% and 51.8%. In addition, the IC50 (curve of compound) was 92.9 nM and > 100 nM.
